# Results from article PMC12090178, “Exploring the Potential of Homologous Recombination Protein PALB2 in Synthetic Lethal Combinations” (ACS Chemical Biology, 2025).
# “Also recorded” adds a separate entry of the source. Where no end group is shown, it is not given here.
# B1: BRCA(23–33) (peptide, UniProt P51587 23-33, looked up)
# peptide: DLGPISLNWFE
# notes: BRCA2 residues 23-33; Rink amide beads: probably a C-terminal amide (my surmise); also called absolute minimal peptide; source: synthetic peptide (SPPS, preparative HPLC)
# Legend:
# [1] = tested on: homologous recombination repair (DR-GFP reporter); assay: DR-GFP reporter assay of homologous recombination; assay type: cell-based
# Protocol: DR-GFP plasmid[53] (a gift from Maria Jasin, Addgene plasmid #26475; RRID/Addgene_26475) was transfected into HEK293 cells with TurboFect (Thermo Scientific) at 70% confluency and selected with hygromycin (0.1 g/L, Invivogen) after 48 h. Transfected cells were moved to a 150 mm cell culture dish and cultured in DMEM medium with hygromycin (0.1 g/L). After obtaining cells carrying the DR-GFP reporter, the cells were treated with Pom for 24 h. Cells were then transfected with a modified pCBASceI[53] (a gift from Maria Jasin, Addgene plasmid #26477; RRID/Addgene_26477, I-SceI was expressed with P2A-mCherry to select for positively transfected cells) to introduce DSB at the I-SceI site in inserted DR-GFP plasmid. Four days after transfection, cells were resuspended in PBS and analyzed by flow cytometry.
# 6 Homologous recombination assay […]
# (§1) After obtaining cells carrying the DR-GFP reporter, cells were maintained in medium with 10 µM pomalidomide for 24 hours. […] Four days after transfection, cells were resuspended in PBS and analyzed by flow cytometry using a BD LSR Fortessa. […]
# (§2) primary antibody incubation, coverslips were washed 3 times with PBS. […] Fluorescence images were taken by confocal microscopy (LEICA POINT SCANNING CONFOCAL SP8). RAD51 f o ci numbers in each cell we re counted with Fiji ImageJ.
# [2] = tested on: HEK293 PALB2 IKZF3d/IKZF3d knock-in cells; assay: Cell viability assay (WST-1); assay type: cell-based; conditions: 4 days (96 h), Pom 0, 5, 10 and 40 μM, WST-1
# Rad51 foci = Rad51 foci assay; assay type: cell-based; conditions: Pom 10 μM 24 h, then CPT 10 nM 12 h
# Protocol: 50,000 cells (WT HEK293 or HEK293-PALB2^IKZF 3d/IKZF 3d) were seeded on coverslips and cultured with Pom (10 μM). After 24 h, CPT was added (10 nM). […] After removing the BSA-containing PBS, coverslips were incubated with primary antibody (Alexa Fluor 488 Anti-Rad51 antibody [EPR4030(3)] (Abcam, ab309674, RRID/AB_3675862), 1:500 in PBS) for 2 h and washed with PBS (3 times). Then, coverslips were mounted with antifade mountant with DAPI (Invitrogen) and fluorescence images were recorded by confocal microscopy (Leica Point Scanning Confocal SP8). Rad51 foci numbers in each cell were counted with Fiji ImageJ.
# 6 Homologous recombination assay
# DR-GFP1 substrate (a gift from Maria Jasin, Addgene plasmid #26475; RRID:Addgene_26475) is flanked by human AAVS1 homology arms. Endogenous AAVS1 promoter drives T2A-hygromycin expression after integration. PX458-AAVS1 (#113194, Addgene) encodes sgRNA for human AAVS1 and expresses Cas9 nuclease. […]
# as §1, §2
# PALB2-IKZF3d = assay: IMiD-induced degradation of PALB2-IKZF3d (Western blot); assay type: cell-based; conditions: for degradation of PALB2 in IKZF3d knock-in cells: homozygous IKZF3d knock-in HEK293 cells, 24 h treatment
# Protocol: 5.1 Degradation of PALB2 and UPP rescue assays
# To show PALB2 deegradation, cells were treated with pomalidomide at the indicated concentrations for 24 h. The cells were subsequently lysed and prepared for gel electrophoresis and western blotting.
# To show UPP rescue, MG132 and MLN4924 were used to inhibit the ubiquitination-proteasome degradation pathway. The cells were first treated with 1 μM MG132 or 1 μM MLN4924. After 6 h, pomalidomide was added to a final concentration of 10 μM. After 18 h, the cells were collected and lysed.
# To show PALB2 recovery, the cells were first treated with 10 μM pomalidomide or 10 μM iberdomide for 24 h. After that, the culture medium was removed, the cells were washed three times with fresh culture medium and then cultured with culture medium without IMiDs.
# The cells were then collected an d l yse d . […]
# Figure S7. A). Degradation of endogenous PALB2.
# B). PALB2 de gra dation rescue expe ri ment. The cells in the degradation rescue group w ere first t reated with 1 μ M MG132 and 1 μ M M LN49 24 for 6 hou rs and then t reated with 10 μ M pomalidomide for 1 8 hours. Cell samples were collected for WB analysis. The asterisk represents a nonspecific band of PALB 2 with t his antibody. […]
# [3] = biological target: PALB2 C-terminal WD40 domain; conditions: previous structural work; read-out: binding affinity to PALB2; cited from earlier work
# Protocol: Previous structural work on the PALB2 C-terminal WD40 domain identified a small fragment of BRCA2 (residues 21–39) with an approximately 600 nM binding affinity (600 nM) to PALB2 (see Figure 2A for structure).[16] […] Binding of the BRCA2(21–39) peptide using fluorescence polarization (FP) with fluorescein (FAM) indeed gave a value in close alignment with the previous report (Figure 2B).[16] Building from this observation we further characterized the binding of amino acids 1 ...
# [4] = biological target: BRCA2 21-39 (Homo sapiens) (UniProt P51587); conditions: cited from earlier work
# SmBiT-PALB2 = assay: NanoBit protein-protein interaction assay in HEK293 cells; assay type: cell-based; conditions: BRCA2 peptide fused to LgBiT, HEK293, 24 h after transfection, signal normalized to empty vector
# Protocol: The NanoBit CMV MCS BiBiT-Ready Vector (Promega) was modified to express PALB2 with a C-Terminal SmBit and the BRCA2 N-terminal peptide with a N-terminal LgBit. 5000 HEK293 cells were seeded in each well of a 96-well plate with a white bottom and grown for 24 h with cell medium (DMEM supplemented with 10% FCS at 37 °C with 5% CO2). The plasmid (100 ng) was transfected with FuGene HD (Promega, E5911) and incubated for 24 h. Then, Nano-Glo Live cell assay substrate (Promega) was added and the luminescence signal was recorded for 1000 ms. Signal was normalized to empty vector.
# 3 PALB2-BRCA2 interaction assays
# 0.5 million HEK293 cells were seeded per well in a 6-well plate. After 24 h, 2 μg of plasmid pCMV-FLAG-PALB2-IKZF3d or pCMV-FLAG-GFP-IKZF3d (control group) was transiently transfected with TurboFect (Thermo Scientific, e.g. R0531 or R0533) int o each well . After 36 h , the medium of at least 3 wells was removed. The cells were washed once with cold PBS on ice. […] The samples were analyzed by Western Blot. […]
# NanoBiT CMV MCS BiBiT-Ready Vector (Promega) was used to construct a plasmid that can express LgBit fusion and SmBit fusion at the same time in cells. […] 24 hours after transfection, the luminescence signal of each well was obtained by adding Nano-Glo Live Cell Assay System (Promega) and the signal was read on a T e can S p ark 10M ( Tecan) for 1000 ms without temperature control.
# [5] = biological target: T1, PALB2 C-terminal WD40 domain (UniProt Q86YC2 835-1186); assay: fluorescence polarisation; not told for these peptides whether direct (labelled peptide) or displacement (dark peptide at 10 μM added to the PALB2C dilution series with 10 nM fluorescent peptide; competitive binding model); 25 °C; conditions: both partners purified
# T1 construct: PALB2 (partner and localizer of BRCA2), C-terminal WD40 beta-propeller domain; as I recall that construct spans about residues 835-1186; methods are in the Supporting Information; also called PALB2 C-terminal domain
# T1 sequence: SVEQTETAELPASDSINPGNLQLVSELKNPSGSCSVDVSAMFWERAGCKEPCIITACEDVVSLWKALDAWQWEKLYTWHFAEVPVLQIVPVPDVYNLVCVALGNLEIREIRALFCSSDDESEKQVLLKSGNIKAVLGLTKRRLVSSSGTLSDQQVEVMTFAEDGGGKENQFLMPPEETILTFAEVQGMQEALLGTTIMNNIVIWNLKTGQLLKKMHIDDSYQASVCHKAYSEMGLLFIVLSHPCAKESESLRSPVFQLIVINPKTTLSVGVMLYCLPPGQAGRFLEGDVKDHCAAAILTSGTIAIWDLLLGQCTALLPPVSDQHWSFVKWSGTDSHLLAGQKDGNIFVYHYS
molecule,measurement,setting,value
"Nc1cccc2c1C(=O)N(C1CCC(=O)NC1=O)C2=O (stereo not shown) [Pom, pomalidomide]",GFP-positive cells (DR-GFP),"[1]; HEK293 wild-type cells, Pom vs DMSO control",remained largely unchanged
same,GFP-positive cells (DR-GFP),"[1]; PALB2 IKZF3d/IKZF3d cells, 10 μM Pom 24 h before I-SceI transfection, flow cytometry after 4 days",notable decrease in GFP-positive cells
same,viability of WT and KI cell lines with Pom alone,[2],did not show strong differences
same,number of Rad51 foci formed in response to DSBs by camptothecin,Rad51 foci; PALB2 IKZF3d/IKZF3d cells,significantly decrease
same,compromised Rad51 foci formation,Rad51 foci; PALB2 wild-type cells,not observed
same,recovery of PALB2 levels after wash out,"PALB2-IKZF3d; 10 μM IMiD for 24 h, then medium removed and cells washed, knock-in cells",PALB2 levels recover after 24 h
same,degradation of transiently expressed PALB2-IKZF3d fusion,"PALB2-IKZF3d; HEK293, transient transfection, 10 μM pomalidomide, 24 h",occurred only with the C-terminal fusion; also recorded: shows degradation
same,degradation of PALB2 in IKZF3d knock-in cells,PALB2-IKZF3d,significant degradation of PALB2
same,degradation of PALB2 in IKZF3d knock-in cells,PALB2-IKZF3d; listed as pomalidomide,degrade most of the endogenous PA LB2
BRCA2 (residues 21–39): small fragment of BRCA2 (residues 21-39) from previous structural work (fluorescein-GGKADLGPISLNWFEELSSEA),Kd,[3],~600 nM
PALB2 WD40 (from UniProt Q86YC2),Kd,[4],600 nM
"W31R mutation of the BRCA(21–39) peptide: point mutated BRCA2 peptide (21-39, W31R) fused with LgBit; negative control (KADLGPISLNRFEELSSEA; also: fused with LgBiT)",NanoBit interaction signal with PALB2,SmBiT-PALB2,complete loss of the interaction signal
B1,Kd,[5],8000 nM
